Earlier results as cited in US8652545B2, “Composition of a liquid dietary supplement to treat symptoms of autism spectrum disorders in children” (Reverta Health Solutions LLC, priority 2008, dated 2014).

Legend:
[1] = in vivo
[2] = in vivo; remark: listed apart in the source
[3] = test system: individuals diagnosed with autism; conditions: high doses, given with magnesium; Nye and Brice (2005)

SMILES | sleep [1] | stress [1] | crossing of the blood-brain barrier [2] | benefit in individuals diagnosed with autism [3]
CCNC(=O)CC[C@H](N)C(=O)O [Theanine] | promote a more restful deep sleep | reduce stress | easily crosses the blood-brain barrier | –
Cc1ncc(CO)c(CO)c1O.Cl [vitamin B6, Vitamin B6] | – | – | – | extremely beneficial
